# Results published in patent publication US11278555B2, “Combinational therapies for treatment of cancer comprising a bacteriochlorophyll derivative” (Yeda Research and Development Co. Ltd., priority 2016, dated 2022).
# System: CD8, Treg, Teff and TCM T cell populations
# Assay: Adaptive immune response (T cell populations) of mice bearing MB49 tumors
# Type: in vivo
# Protocol: • (i) Bacteriochlorophyll Derivatives—The Bchl derivatives and RGD-conjugates thereof were provided by Steba Biotech (Rehovot, Israel). […] Concentration was verified by spectrophotometric measurement. STL-7012 was provided as dipotassium salt. Working solution was prepared by dissolving STL-7012 K^+ salt in 5% mannitol solution (1 mg/ml). […] WST11 was supplied as a powder and kept in the dark at −20° C. Stock was prepared by dissolving WST11 in DDW containing 5% glucose and 0.67% mannitol, aliquoted and lyophilized. Working solution was reconstituted with DDW and the concentration of solution was confirmed spectrophotometrically. Alternatively, Clinical WST11 (batch: P00611, and 10-130611) was supplied as lyophilized formulation. Material was dissolved in 5% dextrose, aliquoted and stored at −20° C. At the day of treatment the aliquot was thawed, filtered and the concentration of solution was confirmed spectrophotometrically. • (ii) Chemotherapeutic drugs preparation and storage—Gemcitabine (GEM, Gemzar®, Lilly) was purchased from a local pharmacy as a powder, dissolved in saline to a concentration of 38 mg/ml, aliquoted and stored at −20° C. Aliquots were thawed, diluted with saline to a desired concentration and used on the same day at a dose of 75 mg/kg. Cyclophosphamide (CTX, Endoxan®, Baxter Oncology Gmbh, Germany) was purchased from a local pharmacy. A stock solution of 20 mg/ml was prepared by dissolving in 0.9% NaCl, aliquoted and stored at −20° C. […] Whole body imaging of luciferase-transfected tumors and metastases were recorded five minutes following 75 mg Kg^−1 intraperitoneal (i.p.) injection of D-luciferin with respective filter sets. • (vi) PDT treatment protocol: 4T1-Luc cells were grafted in the mammary pad of Balb/c mice. […]
compound,measurement,setting,value
"CCC1c2cc3[n-]c(c(CC(=O)OC)c4nc(cc5[n-]c(cc(n2)C1C)c(C(C)=O)c5C)C(C)C4CCC(=O)[O-])c(C(=O)NCCS(=O)(=O)[O-])c3C.[K+].[K+].[Pd+2] (stereo not drawn) [WST11, Palladium 3^1-oxo-15-methoxycarbonylmethyl-rhodobacteriochlorin 13^1-(2-sulfoethyl) amide dipotassium salt]","CD8 cell population in the spleen, blood and draining lymph nodes",6 days post treatment,significant elevation
same,"Treg populations (spleen, blood, lymph nodes)",6 days post treatment,no significant effect
same,CD8 Tcell/Treg ratio,day 6 post VTP,no increase
